Laboratory results: ChEMBL document CHEMBL1201862, “PubChem BioAssay data set” (2004)
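Dose response: 5 concentrations. Exposure: 48 h. Format: 96-well plates. Endpoint: linear interpolation; highest concentration if not reached. GI50: concentration for 50% inhibition of growth.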 Activity calls are given as the source filed them. Rule as the data show it: active = GI50 up to about 1.1 µM and inactive = higher.

How the values were obtained:
Assay in all cases: growth of human tumour cells (NCI), 48 h
BT-549 = test system: BT-549
CAKI-1 = test system: CAKI-1
CCRF-CEM = test system: CCRF-CEM
EKVX = test system: EKVX
HCT-116 = test system: HCT-116
HOP-62 = test system: HOP-62
KM12 = test system: KM12
LOX IMVI = test system: LOX IMVI
MDA-MB-435 = test system: MDA-MB-435
MDA-N = test system: MDA-N
Malme-3M = test system: Malme-3M
OVCAR-3 = test system: OVCAR-3
OVCAR-5 = test system: OVCAR-5
RXF 393 = test system: RXF 393
SF-268 = test system: SF-268
SK-MEL-28 = test system: SK-MEL-28
SNB-19 = test system: SNB-19
SR = test system: SR
UACC-62 = test system: UACC-62

Compound | GI50 (BT-549) | GI50 (CAKI-1) | GI50 (CCRF-CEM) | GI50 (EKVX) | GI50 (HCT-116) | GI50 (HOP-62) | GI50 (KM12) | GI50 (LOX IMVI) | GI50 (MDA-MB-435) | GI50 (MDA-N) | GI50 (Malme-3M) | GI50 (OVCAR-3) | GI50 (OVCAR-5) | GI50 (RXF 393) | GI50 (SF-268) | GI50 (SK-MEL-28) | GI50 (SNB-19) | GI50 (SR) | GI50 (UACC-62)
COc1ccc(C(C)NNC(=O)c2cc[n+]([BH2-]C#N)cc2)cc1F (stereo not drawn) | > 100 µM (inactive) | > 100 µM (inactive) | > 100 µM (inactive) | > 100 µM (inactive) | > 100 µM (inactive) | > 100 µM (inactive) | > 100 µM (inactive) | > 100 µM (inactive) | > 100 µM (inactive) | > 100 µM (inactive) | > 100 µM (inactive) | > 100 µM (inactive) | > 100 µM (inactive) | > 100 µM (inactive) | > 100 µM (inactive) | > 100 µM (inactive) | > 100 µM (inactive) | > 100 µM (inactive) | > 100 µM (inactive)
O=C1CC(O)c2c(Br)sc(Br)c21 (stereo not drawn) | 29.7 µM (inactive) | 2.07 µM (inactive) | 0.728 µM (active) | 10.4 µM (inactive) | 12.4 µM (inactive) | 10.6 µM (inactive) | 7.48 µM (inactive) | 4.48 µM (inactive) | 5.58 µM (inactive) | 8.81 µM (inactive) | 17.1 µM (inactive) | 4.69 µM (inactive) | 21.3 µM (inactive) | 2.5 µM (inactive) | 18.1 µM (inactive) | 15.7 µM (inactive) | 18.6 µM (inactive) | 5.25 µM (inactive) | 13.4 µM (inactive)
CC/C(N)=N\NC(=O)OC(C)(C)C | > 100 µM (inactive) | > 100 µM (inactive) | > 100 µM (inactive) | > 100 µM (inactive) | > 100 µM (inactive) | > 100 µM (inactive) | > 100 µM (inactive) | > 100 µM (inactive) | > 100 µM (inactive) | > 100 µM (inactive) | > 100 µM (inactive) | > 100 µM (inactive) | > 100 µM (inactive) | > 100 µM (inactive) | > 100 µM (inactive) | > 100 µM (inactive) | > 100 µM (inactive) | > 100 µM (inactive) | > 100 µM (inactive)
CCOP(=O)(OCC)c1c(C(=O)OC)cc(=O)[nH]c1-c1ccc(C)cc1 | 7.71 µM (inactive) | 5.46 µM (inactive) | 2.02 µM (inactive) | 3.73 µM (inactive) | 13.8 µM (inactive) | 18.5 µM (inactive) | 16 µM (inactive) | 17.7 µM (inactive) | 18.5 µM (inactive) | 24.8 µM (inactive) | 6.1 µM (inactive) | 11.1 µM (inactive) | 5.64 µM (inactive) | 12.5 µM (inactive) | 19.4 µM (inactive) | 18.5 µM (inactive) | 21.6 µM (inactive) | 3.03 µM (inactive) | 7.01 µM (inactive)
CC(C)CCCC(C)[C@H]1CC[C@H]2NCCCC[C@]12C (stereo partly drawn) | 9.38 µM (inactive) | 7.05 µM (inactive) | 1.37 µM (inactive) | 2.28 µM (inactive) | 3.03 µM (inactive) | 9.08 µM (inactive) | 2.68 µM (inactive) | 1.85 µM (inactive) | 2.01 µM (inactive) | 1.96 µM (inactive) | 4.61 µM (inactive) | 11.9 µM (inactive) | 2.53 µM (inactive) | 2.14 µM (inactive) | 13.1 µM (inactive) | 2.37 µM (inactive) | 5.36 µM (inactive) | 2.07 µM (inactive) | 2.01 µM (inactive)
CCC/C=C/C=C/C(=O)OC1C(C)C2(O)C3C=C(C)C(=O)C3CC(COC(C)=O)=CC2C2C(C)(C)C12OC(=O)C(C)C (stereo not drawn) | 20.7 µM (inactive) | 0.83 µM (active) | 0.137 µM (active) | 19.4 µM (inactive) | 13.8 µM (inactive) | 0.0438 µM (active) | 16.9 µM (inactive) | 19.7 µM (inactive) | 0.303 µM (active) | 0.29 µM (active) | 13.4 µM (inactive) | 17.1 µM (inactive) | 26.1 µM (inactive) | 17.5 µM (inactive) | 13.8 µM (inactive) | 13 µM (inactive) | 25.7 µM (inactive) | 10.7 µM (inactive) | 11.2 µM (inactive)
C1CCN2CC34CC(CC5CCCN(C6CCCC3N6)C54)C2C1 (stereo not drawn) | > 100 µM (inactive) | > 100 µM (inactive) | > 100 µM (inactive) | > 100 µM (inactive) | > 100 µM (inactive) | > 100 µM (inactive) | > 100 µM (inactive) | > 100 µM (inactive) | > 100 µM (inactive) | > 100 µM (inactive) | > 100 µM (inactive) | > 100 µM (inactive) | > 100 µM (inactive) | 78.9 µM (inactive) | > 100 µM (inactive) | > 100 µM (inactive) | > 100 µM (inactive) | > 100 µM (inactive) | > 100 µM (inactive)
Cc1c(C#N)c2nnn(-c3ccccc3)c(=O)n2c1-c1ccccc1 | 5.42 µM (inactive) | 2.42 µM (inactive) | 2.24 µM (inactive) | 2.61 µM (inactive) | 0.619 µM (active) | 4.48 µM (inactive) | 0.839 µM (active) | 4.12 µM (inactive) | 0.307 µM (active) | 0.179 µM (active) | 26.5 µM (inactive) | 0.824 µM (active) | 1.89 µM (inactive) | 2.48 µM (inactive) | 7.85 µM (inactive) |  | 3.31 µM (inactive) | 0.863 µM (active) | 4.79 µM (inactive)
CCOC(=O)c1nc2c3c(ncn2n1)Oc1c(c(-c2ccccc2)nn1-c1ccccc1)C3c1ccc(OC)c(OC)c1 (stereo not drawn) | 36.3 µM (inactive) | 50.1 µM (inactive) | > 100 µM (inactive) | 50.4 µM (inactive) | 65.2 µM (inactive) | 16.3 µM (inactive) | > 10 µM (inactive) | > 100 µM (inactive) | > 100 µM (inactive) | > 100 µM (inactive) | > 100 µM (inactive) | > 100 µM (inactive) | > 100 µM (inactive) | 23.4 µM (inactive) | 15.3 µM (inactive) | 49.2 µM (inactive) | 24.3 µM (inactive) | 51.8 µM (inactive) | 48.6 µM (inactive)
N=c1c2c(=S)n(-c3ccccc3)c(=S)n(-c3ccccc3)c2nc(SCCN2CCOCC2)n1-c1ccccc1 | 1.98 µM (inactive) | 1.94 µM (inactive) | 1.38 µM (inactive) | 3.16 µM (inactive) | 1.85 µM (inactive) | 2.12 µM (inactive) | 2.44 µM (inactive) | 1.71 µM (inactive) | 1.82 µM (inactive) | 2.26 µM (inactive) | 1.66 µM (inactive) | 1.8 µM (inactive) | 18.4 µM (inactive) | 1.79 µM (inactive) | 1.79 µM (inactive) | 2.1 µM (inactive) | 10.4 µM (inactive) | 0.475 µM (active) | 1.81 µM (inactive)
O=C(O)c1ccc(Nc2nc3cc(C(F)(F)F)ccc3n3cccc23)cc1 | 35.7 µM (inactive) | 47.3 µM (inactive) | 16.5 µM (inactive) | 62.4 µM (inactive) | 23.1 µM (inactive) | 41 µM (inactive) | 19.8 µM (inactive) | 10.2 µM (inactive) | 34.7 µM (inactive) | 54.6 µM (inactive) | 84.7 µM (inactive) | 30.2 µM (inactive) | 40.8 µM (inactive) | 17.1 µM (inactive) | 40.6 µM (inactive) | 46.2 µM (inactive) | 54 µM (inactive) | 14.3 µM (inactive) | 23.9 µM (inactive)
S=C=NC1CCC(c2cc3ccccc3s2)(N2CCCCC2)CC1 (stereo not drawn) | 2.09 µM (inactive) | 1.88 µM (inactive) | 0.577 µM (active) | 2.16 µM (inactive) | 1.82 µM (inactive) | 2.07 µM (inactive) | 1.87 µM (inactive) | 1.64 µM (inactive) | 1.62 µM (inactive) | 1.77 µM (inactive) | 1.61 µM (inactive) | 2.09 µM (inactive) | 1.75 µM (inactive) | 1.72 µM (inactive) | 2.08 µM (inactive) | 1.6 µM (inactive) | 2.79 µM (inactive) | 0.071 µM (active) | 1.76 µM (inactive)
CCCC(=O)NC(Nc1ccc(S(=O)(=O)Nc2ccc(OC)nn2)cc1)(C(F)(F)F)C(F)(F)F | > 100 µM (inactive) | > 100 µM (inactive) | > 100 µM (inactive) | > 100 µM (inactive) | > 100 µM (inactive) | > 100 µM (inactive) | > 100 µM (inactive) | > 100 µM (inactive) | > 100 µM (inactive) | > 100 µM (inactive) | > 100 µM (inactive) | > 100 µM (inactive) | > 100 µM (inactive) | > 100 µM (inactive) | > 100 µM (inactive) | > 100 µM (inactive) | > 100 µM (inactive) | > 100 µM (inactive) | > 100 µM (inactive)
COc1cc(C2CC(C)(Nc3ccccc3)Oc3cc4c(cc32)OCO4)cc(OC)c1OC (stereo not drawn) | 0.506 µM (active) | 0.478 µM (active) | 0.124 µM (active) | 1.82 µM (inactive) | 0.23 µM (active) | 0.192 µM (active) | 0.19 µM (active) | 0.256 µM (active) | 0.0172 µM (active) | 0.0412 µM (active) | 3.29 µM (inactive) | 0.219 µM (active) | 2.71 µM (inactive) | 0.222 µM (active) | 4.58 µM (inactive) | 0.254 µM (active) | 0.736 µM (active) | 0.239 µM (active) | 0.203 µM (active)
CC(=O)NC(=N/N=C1/C(=O)Nc2ccc(C)cc21)NC(C)=O | > 100 µM (inactive) | > 100 µM (inactive) | > 100 µM (inactive) | > 100 µM (inactive) | > 100 µM (inactive) | > 100 µM (inactive) | > 100 µM (inactive) | > 100 µM (inactive) | > 100 µM (inactive) | > 100 µM (inactive) | > 100 µM (inactive) |  | > 100 µM (inactive) | 68.1 µM (inactive) | > 100 µM (inactive) | > 100 µM (inactive) | > 100 µM (inactive) | > 100 µM (inactive) | > 100 µM (inactive)
